For test [1], the system named is leukotriene biosynthesis (mouse peritoneal macrophages). The experiment in a line: Mouse Macrophage Assay (leukotriene inhibition). The settings on record: zymosan stimulated, read-out: LEUKOTRIENE INHIBITION MACROPHAGE ED50. Type of test: cell-based. How it is done: Representative compounds of Formula I have been tested using the following assay to determine their mammalian leukotriene biosynthesis inhibiting activity.
Mouse peritoneal macrophages were treated sequentially with arachidonic acid (labelled with tritium); the compound being evaluated as an inhibitor, and a stimulator (zymosan). Metabolites derived from arachidonic acid (PGE2, 6-keto PG-F1α and Leukotriene C4) were separated from the incubation medium by extraction and chromatography, and then quantitated by determining the amount of radioactivity (cpm) associated with each of them. […] (This protocol is identical to that described in the reference except that the radioactivity herein associated with the LTC4 was determined by counting an aliquot of the final aqueous solution directly rather than chromatographying it first).
Reference: Humes, J. L. et al., J. Biol. Chem. 257, 1591-4 (1982).
The following table (Table II) reflects the leukotriene biosynthesis inhibiting ability of selected compounds of Formula I.

The test system of a further test is asthmatic rats. The experiment in a line: Asthmatic Rat Assay (duration of antigen-induced dyspnea). Type of test: in vivo. The text has this:
Rats were obtained from an inbred line of asthmatic rats. Both female and male rats from 200 to 300 g were used.
Egg albumin (EA), grade V, crystallized and lyophilized, was obtained from Sigma Chemical Co., St. Louis, Bordetella pertussis vaccine, containing 30×10^9 killed bacteria per ml was obtained from the Institut Armand-Frappier, Laval des Rapides, Quebec. Aluminum hydroxide was obtained from the Regis Chemical Company, Chicago.
The challenge and subsequent respiratory recordings were carried out in a clear plastic box with internal dimensions 10×6×4 inches. The top of the box was removable; in use, it was held firmly in place by four clamps and an airtight seal was maintained by a soft rubber gasket. […] A Fleisch No. 0000 pneumotachograph was inserted into one end of the box and coupled to a Grass volumetric pressure transducer (PT5-A) which was then connected to a Beckman Type R Dynograph through appropriate couplers. While aerosolizing the antigen, the outlets were open and the pneumatachograph was isolated from the chamber. The outlets were closed and the pneumotachograph and the chamber were connected during the recording of the respiratory patterns. […]
Rats were sensitized by injecting (s.c.) 1 ml of a suspension containing 1 mg EA and 200 mg aluminum hydroxide in saline. […] Rats were then exposed to an aerosol of 3% EA in saline for exactly 1 minute, then their respiratory profiles were recorded for a further 25-30 minutes. The duration of continuous dyspnea was measured from the respiratory recordings.
Compounds were generally administered either intraperitoneally 1 hour prior to challenge or orally 11/2 hours prior to challenge. […] Their activity was determined in terms of their ability to decrease the duration of symptoms of dyspnea in comparison with a group of vehicle-treated controls. Usually, a compound was evaluated at a series of doses and an ED50 was determined. […]

Test [2] concerns PAF-induced hyperalgesia (female Sprague-Dawley rats). Put plainly: PAF-Induced Hyperalgesia Assay. Type of test: in vivo, rat. The settings on record: p.o. How it is done: PAF-Induced Hyperalgesia Assay
Female Sprague-Dawley rats, 35-40 g were fasted overnight. Platelet activating factor, PAF, (L-lecithin B-acetyl O-alkyl) 1 μg/0.1 ml was given by subplantar injection in the rat paw. The compounds to be evaluated were homogenized in Aqueous Vehicle (0.9% benzyl alcohol, 0.5% Tween 80 and 0.4% methylcellulose) and administered orally in a volume of 0.1 ml, 30 minutes prior to PAF.
Animals were tested 1, 2, 3 and 4 hours after PAF administration. The vocalization threshold, defined as the pressure (mmHg) needed to evoke a squeak response, was recorded for both the injected and contralateral paw. No animal was subjected to pressure greater than 60 mmHg. Hyperalgesia is defined as a decrease in vocalization threshold as compared to a normal paw. Percent inhibition of hyperalgesia was calculated as the proportion of animals with vocalization thresholds greater than 200% of controls.

Molecules are shown by their SMILES. In brackets after ≈: the same amount, converted by molar mass.

On to `CCOC(=O)c1oc2cccc(OC(=S)N(C)C)c2c1C`, for which the IC50 in test [1] is 2.5 to 5 µg/mL (≈ 8.13 to 16.3 µM). Take `CCOC(=O)c1oc2cccc(SC(=O)N(C)C)c2c1C`: the IC50 in test [1] was found to be 5 µg/mL (≈ 16.3 µM).

With `CC(=O)Oc1cccc2oc(C(=O)Nc3ccccc3)c(C)c12`, the IC50 in test [1] was determined as 0.2 µg/mL (≈ 0.647 µM). Same read-out and setting: the value for `CC(=O)Oc1cccc2oc(C(=O)Nc3ccc(Cl)cc3)c(C)c12` was 0.2 µg/mL (≈ 0.582 µM); that for `Cc1c(C(=O)O)oc2cccc(O)c12` was 5 µg/mL (≈ 26 µM); that for `CCOC(=O)c1oc2cccc(O)c2c1C` [drawing 82] was 0.2 µg/mL (≈ 0.908 µM).

Consider `Cc1c(C(=O)OC(C)(C)C)oc2cccc(O)c12` [drawing 83], for which the IC50 in test [1] was determined as 1 µg/mL (≈ 4.03 µM). Consider `CCOC(=O)c1oc2cccc(OC(C)=O)c2c1C` [drawing 86], for which the IC50 in test [1] is 5 µg/mL (≈ 19.1 µM). Consider `Cc1c(C(=O)Nc2ccccc2)oc2cccc(O)c12` [drawing 90], for which the IC50 in test [1] lay within 1 to 5 µg/mL (≈ 3.74 to 18.7 µM). In the case of `Cc1c(C(=O)NNc2ccccc2)oc2cccc(O)c12` [drawing 91], in test [1], the IC50 turned out to be 1 µg/mL (≈ 3.54 µM). For the compound `Cc1c(C(=O)NNc2ccc(Cl)cc2)oc2cccc(O)c12` [drawing 92], the IC50 in test [1] turned out to be 1 µg/mL (≈ 3.16 µM). For `CCOC(=O)c1oc2cccc(O)c2c1C` [drawing 93], the “ASTHMATIC RAT (% inhibition of duration of dyspnea)” value in the test with asthmatic rats (5 mg/kg, i.v.) is 38%. In test [2] (10 mg/kg), the “PAF HYPERALGESIA (percent inhibition of hyperalgesia)” value was 10%. Regarding `Cc1c(C(=O)OC(C)(C)C)oc2cccc(O)c12` [drawing 94], the “ASTHMATIC RAT (% inhibition of duration of dyspnea)” value in the test with asthmatic rats (15 mg/kg, p.o.) stood at 41%. Moreover, the “PAF HYPERALGESIA (percent inhibition of hyperalgesia)” value in test [2] (10 mg/kg) was 60%.

`CCOC(=O)c1oc2cccc(OC(C)=O)c2c1C` [drawing 95]: in the test on asthmatic rats (5 mg/kg, i.v.), the “ASTHMATIC RAT (% inhibition of duration of dyspnea)” value turned out to be 63%. For the same compound, in test [2] (10 mg/kg), the “PAF HYPERALGESIA (percent inhibition of hyperalgesia)” value was determined as 50%. On to `Cc1c(C(=O)Nc2ccccc2)oc2cccc(O)c12` [drawing 96], for which the “PAF HYPERALGESIA (percent inhibition of hyperalgesia)” value in test [2] (1.03 mg/kg) is 60%. For the compound `Cc1c(C(=O)NNc2ccccc2)oc2cccc(O)c12` [drawing 97], the “PAF HYPERALGESIA (percent inhibition of hyperalgesia)” value in test [2] (20 mg/kg) was determined as 50%. Turning to `Cc1c(C(=O)NNc2ccc(Cl)cc2)oc2cccc(O)c12` [drawing 98], the “PAF HYPERALGESIA (percent inhibition of hyperalgesia)” value in test [2] (1 mg/kg) is listed as 60%.

For the origin of these results see US4663347A, “Benzofuran 2-carboxylic acid esters useful as inhibitors of leukotriene biosynthesis” (Merck Frosst Canada, Inc., priority 1985, dated 1987).
